Measured values as given in PubChem BioAssay (NCI).
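96-well plates; 48 h exposure; 5 concentrations. Endpoints by linear interpolation between flanking doses. Not reached: highest tested concentration assigned. GI50 is the concentration that inhibits growth by half. Definition used: TGI = concentration required for complete inhibition of growth.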

Key:
Test in all cases: NCI anticancer screen, dose series, 48 h
SF-268 CNS = tested on: SF-268 CNS
NCI-H23 lung = tested on: NCI-H23 lung
HCC-2998 colon = tested on: HCC-2998 colon
OVCAR-3 ovarian = tested on: OVCAR-3 ovarian
OVCAR-5 ovarian = tested on: OVCAR-5 ovarian
RPMI-8226 leukemia = tested on: RPMI-8226 leukemia
CAKI-1 renal = tested on: CAKI-1 renal
MDA-MB-468 breast = tested on: MDA-MB-468 breast
HOP-92 NSCLC = tested on: HOP-92 NSCLC
A549 NSCLC = tested on: A549 NSCLC
SR leukemia = tested on: SR leukemia
NCI-H460 lung = tested on: NCI-H460 lung
HCT-15 colon = tested on: HCT-15 colon
KM12 colon = tested on: KM12 colon
DU-145 prostate = tested on: DU-145 prostate
HL-60(TB) leukemia = tested on: HL-60(TB) leukemia
MOLT-4 leukemia = tested on: MOLT-4 leukemia
NCI-H226 lung = tested on: NCI-H226 lung
HCT-116 colon = tested on: HCT-116 colon
MDA-MB-435 = tested on: MDA-MB-435
UACC-257 melanoma = tested on: UACC-257 melanoma
M14 melanoma = tested on: M14 melanoma
UACC-62 melanoma = tested on: UACC-62 melanoma
A498 renal = tested on: A498 renal
COLO 205 colon = tested on: COLO 205 colon
SNB-19 CNS = tested on: SNB-19 CNS
MDA-MB-231 breast = tested on: MDA-MB-231 breast
SF-539 CNS = tested on: SF-539 CNS
HOP-62 NSCLC = tested on: HOP-62 NSCLC
K-562 leukemia = tested on: K-562 leukemia
U251 CNS = tested on: U251 CNS
SK-OV-3 ovarian = tested on: SK-OV-3 ovarian
NCI/ADR-RES ovarian = tested on: NCI/ADR-RES ovarian
SNB-75 CNS = tested on: SNB-75 CNS
PC-3 prostate = tested on: PC-3 prostate
LOX IMVI melanoma = tested on: LOX IMVI melanoma
NCI-H522 lung = tested on: NCI-H522 lung
OVCAR-8 ovarian = tested on: OVCAR-8 ovarian
SN12C renal = tested on: SN12C renal
BT-549 breast = tested on: BT-549 breast
SK-MEL-2 melanoma = tested on: SK-MEL-2 melanoma
SF-295 CNS = tested on: SF-295 CNS
786-0 renal = tested on: 786-0 renal
TK-10 renal = tested on: TK-10 renal
EKVX NSCLC = tested on: EKVX NSCLC
HS 578T breast = tested on: HS 578T breast
MCF7 breast = tested on: MCF7 breast
SW-620 colon = tested on: SW-620 colon
OVCAR-4 ovarian = tested on: OVCAR-4 ovarian
T-47D breast = tested on: T-47D breast
MALME-3M melanoma = tested on: MALME-3M melanoma
IGROV1 ovarian = tested on: IGROV1 ovarian
SK-MEL-28 melanoma = tested on: SK-MEL-28 melanoma
SK-MEL-5 melanoma = tested on: SK-MEL-5 melanoma
CCRF-CEM leukemia = tested on: CCRF-CEM leukemia
HT29 colon = tested on: HT29 colon
UO-31 renal = tested on: UO-31 renal
ACHN renal = tested on: ACHN renal
RXF 393 renal = tested on: RXF 393 renal

SMILES: O=C(COc1ccc(/C=C2/C(=O)Nc3ccc(Cl)cc32)cc1)Nc1ccc(Br)cc1
- GI50 (SF-268 CNS): 2420 nM
- TGI (SF-268 CNS): 10.8 µM
- GI50 (NCI-H23 lung): 1660 nM
- TGI (NCI-H23 lung): 3.46 µM
- GI50 (HCC-2998 colon): 4.46 µM
- TGI (HCC-2998 colon): 17.6 µM
- GI50 (OVCAR-3 ovarian): 1700 nM
- TGI (OVCAR-3 ovarian): 3.18 µM
- GI50 (OVCAR-5 ovarian): 2290 nM
- TGI (OVCAR-5 ovarian): 7.61 µM
- GI50 (RPMI-8226 leukemia): 4.04 µM
- TGI (RPMI-8226 leukemia): 14.8 µM
- GI50 (CAKI-1 renal): 1470 nM
- TGI (CAKI-1 renal): 3.58 µM
- GI50 (MDA-MB-468 breast): 10.3 µM
- TGI (MDA-MB-468 breast): 22 µM
- GI50 (HOP-92 NSCLC): 1610 nM
- TGI (HOP-92 NSCLC): 3.83 µM
- GI50 (A549 NSCLC): 1520 nM
- TGI (A549 NSCLC): 3.28 µM
- GI50 (SR leukemia): 2930 nM
- TGI (SR leukemia): 12.1 µM
- GI50 (NCI-H460 lung): 1910 nM
- TGI (NCI-H460 lung): 3.79 µM
- GI50 (HCT-15 colon): 1400 nM
- TGI (HCT-15 colon): 10.1 µM
- GI50 (KM12 colon): 2470 nM
- TGI (KM12 colon): 11.6 µM
- GI50 (DU-145 prostate): 2380 nM
- TGI (DU-145 prostate): 6.52 µM
- GI50 (HL-60(TB) leukemia): 3.51 µM
- TGI (HL-60(TB) leukemia): 14.9 µM
- GI50 (MOLT-4 leukemia): 2610 nM
- TGI (MOLT-4 leukemia): 8.48 µM
- GI50 (NCI-H226 lung): 1550 nM
- TGI (NCI-H226 lung): 3.81 µM
- GI50 (HCT-116 colon): 1550 nM
- TGI (HCT-116 colon): 3.09 µM
- GI50 (MDA-MB-435): 3.45 µM
- TGI (MDA-MB-435): 13.5 µM
- GI50 (UACC-257 melanoma): 4.3 µM
- TGI (UACC-257 melanoma): 16.5 µM
- GI50 (M14 melanoma): 1670 nM
- TGI (M14 melanoma): 5.81 µM
- GI50 (UACC-62 melanoma): 1350 nM
- TGI (UACC-62 melanoma): 5.72 µM
- GI50 (A498 renal): 7.37 µM
- TGI (A498 renal): 19.6 µM
- GI50 (COLO 205 colon): 4.61 µM
- TGI (COLO 205 colon): 17.1 µM
- GI50 (SNB-19 CNS): 2720 nM
- TGI (SNB-19 CNS): 8.08 µM
- GI50 (MDA-MB-231 breast): 1360 nM
- TGI (MDA-MB-231 breast): 2880 nM
- GI50 (SF-539 CNS): 1590 nM
- TGI (SF-539 CNS): 3.04 µM
- GI50 (HOP-62 NSCLC): 1620 nM
- TGI (HOP-62 NSCLC): 3.79 µM
- GI50 (K-562 leukemia): 2110 nM
- TGI (K-562 leukemia): 12.7 µM
- GI50 (U251 CNS): 1750 nM
- TGI (U251 CNS): 3.29 µM
- GI50 (SK-OV-3 ovarian): 1490 nM
- TGI (SK-OV-3 ovarian): 4.12 µM
- GI50 (NCI/ADR-RES ovarian): 1770 nM
- TGI (NCI/ADR-RES ovarian): 4.04 µM
- GI50 (SNB-75 CNS): 5.09 µM
- TGI (SNB-75 CNS): 20.3 µM
- GI50 (PC-3 prostate): 1790 nM
- TGI (PC-3 prostate): 6.25 µM
- GI50 (LOX IMVI melanoma): 1360 nM
- TGI (LOX IMVI melanoma): 2640 nM
- GI50 (NCI-H522 lung): 1710 nM
- TGI (NCI-H522 lung): 4.64 µM
- GI50 (OVCAR-8 ovarian): 1870 nM
- TGI (OVCAR-8 ovarian): 3.93 µM
- GI50 (SN12C renal): 1750 nM
- TGI (SN12C renal): 4.39 µM
- GI50 (BT-549 breast): 1430 nM
- TGI (BT-549 breast): 4.75 µM
- GI50 (SK-MEL-2 melanoma): 2580 nM
- TGI (SK-MEL-2 melanoma): 10.8 µM
- GI50 (SF-295 CNS): 1740 nM
- TGI (SF-295 CNS): 3.8 µM
- GI50 (786-0 renal): 1780 nM
- TGI (786-0 renal): 3.21 µM
- GI50 (TK-10 renal): 2740 nM
- TGI (TK-10 renal): 5.51 µM
- GI50 (EKVX NSCLC): 1920 nM
- TGI (EKVX NSCLC): 5.99 µM
- GI50 (HS 578T breast): 2020 nM
- TGI (HS 578T breast): 6.68 µM
- GI50 (MCF7 breast): 2030 nM
- TGI (MCF7 breast): 7.86 µM
- GI50 (SW-620 colon): 1890 nM
- TGI (SW-620 colon): 3.82 µM
- GI50 (OVCAR-4 ovarian): 1850 nM
- TGI (OVCAR-4 ovarian): 3.93 µM
- GI50 (T-47D breast): 1930 nM
- TGI (T-47D breast): 7.56 µM
- GI50 (MALME-3M melanoma): 1500 nM
- TGI (MALME-3M melanoma): 3.68 µM
- GI50 (IGROV1 ovarian): 2240 nM
- TGI (IGROV1 ovarian): 8.14 µM
- GI50 (SK-MEL-28 melanoma): 1980 nM
- TGI (SK-MEL-28 melanoma): 5.02 µM
- GI50 (SK-MEL-5 melanoma): 2140 nM
- TGI (SK-MEL-5 melanoma): 5.47 µM
- GI50 (CCRF-CEM leukemia): 2110 nM
- TGI (CCRF-CEM leukemia): 5.54 µM
- GI50 (HT29 colon): 2870 nM
- TGI (HT29 colon): 9.07 µM
- GI50 (UO-31 renal): 221 nM
- TGI (UO-31 renal): 2270 nM
- GI50 (ACHN renal): 1200 nM
- TGI (ACHN renal): 2470 nM
- GI50 (RXF 393 renal): 1590 nM
- TGI (RXF 393 renal): 3.24 µM
